The text below walks through data of PubChem BioAssay (NCI).

SMILES strings stand for the structures. Where “and” joins values, the source holds several entries; their conditions need not be identical. Equal values may be shown once.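 Growth conditions: 96-well plates. Treatment: test compound, 48 hours, 5 concentrations. Analysis: linear interpolation between bracketing concentrations; unreached endpoints set to highest concentration. Here, GI50 denotes the concentration required for 50% inhibition of growth. At the TGI there is no net growth.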 Starred links: 1 amine or outer side, 2 acyl side, 3 side chain; linkers in the order of their positions; H or OH if unused. Non-standard residues stand in square brackets, D forms with d. Residues, ends and D or L forms follow the SMILES beside them. *: point of attachment. X14 = C/C=C/CC(C)C(O)[C@H](N[*:1])C(=O)[*:2]; Decanoyl = CCCCCCCCCC(=O)*; Leu(ol) = CC(C)C[C@H](N)CO; Iva = CC[C@](C)(N)C(=O)O; Aib = CC(C)(N)C(=O)O

This assay relates to MDA-MB-468 breast. Description: NCI tumour cell line growth inhibition, 48 h.
`CN(CSc1ccc(Cl)cc1)c1ccc(CSc2ccc(Cl)cc2)cc1`: the GI50 is 1850 nM and the TGI worked out at 5070 nM.
In the same order, the values of `CCCCCCc1cc2cc(-c3csc(/C=C/c4ccccc4)n3)c(=O)oc2cc1O` are 6100 nM and 28700 nM.
For `Cc1[nH]c(C(=O)Nc2ccc(S(=O)(=O)N3CCCCC3)cc2OCCOCCOCCOCCOCCOCCOCCOCCOCCOc2cc(S(=O)(=O)N3CCCCC3)ccc2NC(=O)c2[nH]c(C)c3c2CCCCC3=O)c2c1C(=O)CCCC2`, in that order: 191 nM and 794 nM.
In the same order, the values of `COc1ncc(-c2ccc3nccc(C#CCN4CCN(S(C)(=O)=O)CC4)c3c2)cc1NS(=O)(=O)c1ccc(F)cc1F` are 19.8 nM and 122 nM.
For `COc1cc(/C=C/C(=O)c2c(C)nc3ccccc3c2C)ccc1OCCCCOc1cc2c(cc1OC)C(=O)N1CCC[C@H]1C=N2`, the GI50 was 235 nM and the TGI amounted to 625 nM.
In the same order, the values of `COc1cc2c(cc1OCCCCn1c(-c3cccs3)nc3ccccc31)N=C[C@@H]1CCCN1C2=O` are 333 nM and 1600 nM.
In the same order, the values of `O=c1[nH]c(F)nc2c1ncn2C1OC(CO)C(O)C1O` (centres undefined) are over 100000 nM and over 100000 nM.
In the case of `FC(F)(F)c1ccc(-c2ncc(-c3ccc(C(F)(F)F)cc3)c(NCc3cc(C(F)(F)F)cc(C(F)(F)F)c3)n2)cc1`, the GI50 was 3200 nM and the TGI stood at 15500 nM.
In the same order, the values of `O=C(/C=C/c1cccc(S(=O)(=O)Nc2ccccc2)c1)NO` are 241 nM and 5360 nM.
Take `CCCOc1ccc(/C=N/Nc2cc(C)nc3ccc(Cl)cc23)cc1`: the GI50 is 1690 nM and the TGI stood at 3190 nM.
For the compound `CN1CCN(c2ccc(Nc3nc(NCCNS(=O)(=O)c4ccc5ccccc5c4)c4sccc4n3)cc2)CC1`, the GI50 is 2830 nM and the TGI was found to be 12200 nM.
For `O=C(Cc1ccc(Nc2ccnc(C(F)(F)F)c2)cc1)N/N=C/c1ccccc1O`, in that order: 3000 nM and 39300 nM.
In the same order, the values of `C/C=C/CC(C)C(O)[C@H](NC(=O)[C@@H]1CCCN1C(=O)C(C)(C)NC(=O)CCCCCCCCC)C(=O)N[C@@](C)(CC)C(=O)N[C@@H](CCC(N)=O)C(=O)N[C@H](CCC(N)=O)C(=O)NC(C)(C)C(=O)N[C@@](C)(CC)C(=O)N[C@@H](CCC(N)=O)C(=O)N[C@H](CC(C)C)C(=O)N[C@H](CO)CC(C)C` (stereo partly drawn) (Decanoyl-[Aib]P[X14][Iva]Q[dQ][Aib][Iva]Q[dL][Leu(ol)]) are 32.9 nM and 260 nM.
`O=C1NC(=O)C(c2ccccc2)=C1Nc1ccccc1`: the GI50 is over 25000 nM and the TGI was over 25000 nM.
For `O=C(O)c1ccc(C(=O)O)c(C(=O)O)c1.[NH-]C1CCCCC1[NH-].[Pt+2]`, the GI50 is 35700 nM and the TGI is over 100000 nM.
In the case of `Brc1ccc(Nc2nc3ccccc3nc2Nc2ccc(Br)cc2)cc1`, the GI50 is 365 nM and the TGI was found to be 2580 nM.
Take `O=C1c2cccnc2C(=O)c2c1c(C(=O)OCCc1ccccn1)c1ccccn21`: the GI50 is 1840 nM and the TGI was found to be 5060 nM.
In the same order, the values of `COc1ccc(C2CC(c3ccc4ccccc4c3)=NN2c2nc(O)c(C3=c4cc(OC)ccc4=NC3=O)s2)cc1` (centres undefined) are 46.2 nM and 200 nM.
For `NCCCNc1nc2ccc(Cl)cc2c2c(=O)c3cc(F)ccc3sc12`, in that order: 2900 nM and 10100 nM.
Turning to `c1ccc(-c2cn(-c3ccccc3)c(-c3ccccc3)n2)cc1`, the GI50 was 10100 nM and the TGI is 30500 nM.
For `CCOC(=O)[C@@H](C)C[C@H](Cc1ccccc1)NC(=O)c1csc([C@@H](C[C@H](C(C)C)N(C)C(=O)[C@@H](NC(=O)[C@H]2C[C@H](O)CCN2C)C(C)C)OC(C)=O)n1`, in that order: under 1.67 nM and over 16700 nM.
In the same order, the values of `O=C(Nc1ccc(I)cc1)c1cccc([N+](=O)[O-])c1O` are 2070 nM and 7400 nM.
For `Cc1cc(C(O)(c2ccc(Nc3ccccc3)cc2)c2ccc(Nc3ccc(S(=O)(=O)O)cc3)cc2)ccc1N` (centres undefined), in that order: 480 nM and 2480 nM.
For the compound `O=C1/C(=C\c2ccccc2)CN(C(=O)c2ccccc2)C/C1=C\c1ccccc1`, the GI50 was 1690 nM and the TGI is 3560 nM.
For `NC(=O)CCc1ccccc1Oc1nccc(-c2c(-c3ccc(F)cc3)ncn2C2CCNCC2)n1`, in that order: 10000 nM and over 25000 nM.
In the same order, the values of `NC(=N\N=C/c1ccc(Cl)cc1Cl)/C(N)=N\N=C/c1ccc(Cl)cc1Cl` are 6870 nM and over 100000 nM.
For `CC(C)OCc1cc(CN2CCN(c3cccc(Cl)c3)CC2)c(O)c2ncccc12`, in that order: 346 nM and 1670 nM.
On to `CCC(C)(C)[C@H](NC(=O)[C@H]1CCCCN1C)C(=O)N(C)[C@H](C[C@@H](OC(C)=O)c1nc(C(=O)N[C@@H](Cc2ccccc2)C[C@H](C)C(=O)O)cs1)C(C)C`, for which the GI50 is under 1.67 nM and the TGI was under 1.67 nM.
As to `FC(F)(F)c1cc(-c2ncn(/C=C\c3nnco3)n2)cc(C(F)(F)F)c1`, the GI50 was 85.4 nM and the TGI amounted to 740 nM.
For `CCCCN(CC)CCCCCCCCCCN1CCCc2cc(OC)ccc21`, in that order: 1590 nM and 3580 nM.
For `CCN1C(=O)N(CC)C2C1NC(=S)N2/N=C/C=C/c1ccccc1OC` (centres undefined), in that order: 35.3 nM and 38900 nM.
For `Oc1ccc(Cc2ccc(O)c(C3CC(c4ccc(Cl)cc4)=NN3)c2)cc1C1CC(c2ccc(Cl)cc2)=NN1` (centres undefined), in that order: 2850 nM and 9440 nM.
With `O=C(NS(=O)(=O)c1ccc(NC[C@H]2COCCO2)c([N+](=O)[O-])c1)c1ccc(N2CCN(CC3=C(c4ccc(Cl)cc4)CC4(CCC4)CC3)CC2)cc1Oc1cnc2[nH]ccc2c1`, the GI50 is 1790 nM and the TGI was 4350 nM.
As for `COC(=O)[C@@H](C)C[C@H](Cc1ccccc1)NC(=O)c1csc([C@@H](C[C@H](C(C)C)N(C)C(=O)C2(NC(=O)[C@H]3CCCCN3C)CCC2)OC(C)=O)n1`, the GI50 is 1.23 nM and 2.5 nM; the TGI is over 25000 nM.
Regarding `CCC(C)CC(C)C(=O)c1c(O)ccn(O)c1=O` (centres undefined), the GI50 was 2100 nM and the TGI worked out at 9470 nM.
For `N#C/C(=C\c1ccc(F)cc1)n1nc2cccc(F)c2n1`, in that order: 3050 nM and over 100000 nM.
In the same order, the values of `O=Cc1ccc(-c2ccc(-c3ccc(C=O)o3)[se]2)o1` are 22600 nM and over 100000 nM.
